Measurements as given in publication PMC8155022 (Scientific Reports, 2021).
pIC50: −log10 of the molar value. Like-named read-outs stand apart in the source and are kept apart here.

Columns and labels:
[1] = molecular target: T1, PPARβ (Homo sapiens, UniProt Q03181); assay: nuclear receptor cellular GAL4 reporter assay; format: cell-based; settings: agonist and antagonist mode; read-out: potency in agonist and antagonist mode
T1 construct: expressed in transfected cells

[2] = molecular target: T2, RXRα (Homo sapiens, UniProt P19793); assay: nuclear receptor cellular GAL4 reporter assay; format: cell-based; settings: agonist and antagonist mode; read-out: potency in agonist and antagonist mode
T2 construct: expressed in transfected cells

[3] = molecular target: T3, MR (Homo sapiens, UniProt P08235); assay: nuclear receptor cellular GAL4 reporter assay; format: cell-based; settings: agonist and antagonist mode; read-out: potency in agonist and antagonist mode
T3 construct: expressed in transfected cells

[4] = molecular target: T4, CXCR2 (h) (IL-8B) (Homo sapiens, UniProt P25025); assay: Cerep panel; format: binding
T4 construct: purchased Cerep (receptors, ion channels, transporters); Eurofins Panlabs (kinases)
Protocol: (§2) A panel of 52 different receptors, ion channels and transporters was tested by Cerep, Inc. (Redmond, WA).

[5] = molecular target: T5, M3 (h) (Homo sapiens, UniProt P20309); assay: Cerep panel; format: binding
T5 construct: purchased Cerep (receptors, ion channels, transporters); Eurofins Panlabs (kinases)
Protocol: as §2

[6] = molecular target: T6, Y1 (h) (Homo sapiens, UniProt P25929); assay: Cerep panel; format: binding
T6 construct: purchased Cerep (receptors, ion channels, transporters); Eurofins Panlabs (kinases)
T6 sequence (P25929 whole entry): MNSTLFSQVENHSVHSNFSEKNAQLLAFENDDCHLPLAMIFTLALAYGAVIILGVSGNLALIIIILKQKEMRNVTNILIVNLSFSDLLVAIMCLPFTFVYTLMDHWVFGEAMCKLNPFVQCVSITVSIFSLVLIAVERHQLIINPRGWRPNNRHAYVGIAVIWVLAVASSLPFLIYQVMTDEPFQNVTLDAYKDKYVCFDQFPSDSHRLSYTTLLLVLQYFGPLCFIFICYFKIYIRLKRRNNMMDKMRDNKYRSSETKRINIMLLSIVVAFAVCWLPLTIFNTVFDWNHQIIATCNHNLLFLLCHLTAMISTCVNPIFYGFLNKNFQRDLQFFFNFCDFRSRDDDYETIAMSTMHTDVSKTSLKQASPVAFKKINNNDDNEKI
Protocol: as §2

[7] = molecular target: T7, NT1 (h) (NTS1) (Homo sapiens, UniProt P30989); assay: Cerep panel; format: binding
T7 construct: purchased Cerep (receptors, ion channels, transporters); Eurofins Panlabs (kinases)
T7 sequence (P30989 whole entry): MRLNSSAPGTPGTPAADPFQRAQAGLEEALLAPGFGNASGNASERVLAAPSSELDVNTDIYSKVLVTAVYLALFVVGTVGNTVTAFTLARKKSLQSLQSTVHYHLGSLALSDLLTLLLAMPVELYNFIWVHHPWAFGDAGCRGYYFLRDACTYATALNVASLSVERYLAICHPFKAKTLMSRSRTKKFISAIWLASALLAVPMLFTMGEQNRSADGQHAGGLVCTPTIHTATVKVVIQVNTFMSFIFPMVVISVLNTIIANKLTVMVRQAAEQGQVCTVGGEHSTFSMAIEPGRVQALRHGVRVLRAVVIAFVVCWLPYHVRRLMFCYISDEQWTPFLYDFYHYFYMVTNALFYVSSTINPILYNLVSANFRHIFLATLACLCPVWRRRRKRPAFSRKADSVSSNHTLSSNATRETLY
Protocol: as §2

[8] = molecular target: T8, ORL1 (h) (NOP) (Homo sapiens, UniProt P41146); assay: Cerep panel; format: binding
T8 construct: purchased Cerep (receptors, ion channels, transporters); Eurofins Panlabs (kinases)
T8 sequence (P41146 whole entry): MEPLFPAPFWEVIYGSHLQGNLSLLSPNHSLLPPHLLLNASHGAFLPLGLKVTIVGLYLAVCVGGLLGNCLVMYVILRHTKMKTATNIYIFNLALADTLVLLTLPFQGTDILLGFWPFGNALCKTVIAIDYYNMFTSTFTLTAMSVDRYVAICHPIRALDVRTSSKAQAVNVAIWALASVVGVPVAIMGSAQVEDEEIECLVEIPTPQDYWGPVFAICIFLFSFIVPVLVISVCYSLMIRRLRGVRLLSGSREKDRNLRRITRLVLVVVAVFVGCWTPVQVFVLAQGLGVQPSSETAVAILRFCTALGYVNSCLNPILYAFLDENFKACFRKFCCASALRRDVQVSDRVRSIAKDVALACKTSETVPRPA
Protocol: as §2

[9] = molecular target: T9, A3 (Homo sapiens, UniProt P0DMS8); assay: GPCR panel, cAMP or calcium FLIPR assays; format: cell-based
T9 sequence (P0DMS8 1-318): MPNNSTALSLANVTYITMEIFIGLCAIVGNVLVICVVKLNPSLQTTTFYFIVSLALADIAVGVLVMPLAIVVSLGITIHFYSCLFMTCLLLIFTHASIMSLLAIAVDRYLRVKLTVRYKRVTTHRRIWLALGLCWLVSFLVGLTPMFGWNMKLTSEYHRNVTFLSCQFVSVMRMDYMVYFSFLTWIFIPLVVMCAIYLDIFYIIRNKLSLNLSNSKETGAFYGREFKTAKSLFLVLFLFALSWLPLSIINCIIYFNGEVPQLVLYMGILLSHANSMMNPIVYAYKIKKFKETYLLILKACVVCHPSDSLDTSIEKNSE
Protocol: (§3) 28 GPCRs were evaluated through cAMP or calcium FLIPR assays[67].

[10] = molecular target: M1 (Homo sapiens, UniProt P11229); assay: GPCR panel, cAMP or calcium FLIPR assays; format: cell-based
M1, sequence (P11229 whole entry): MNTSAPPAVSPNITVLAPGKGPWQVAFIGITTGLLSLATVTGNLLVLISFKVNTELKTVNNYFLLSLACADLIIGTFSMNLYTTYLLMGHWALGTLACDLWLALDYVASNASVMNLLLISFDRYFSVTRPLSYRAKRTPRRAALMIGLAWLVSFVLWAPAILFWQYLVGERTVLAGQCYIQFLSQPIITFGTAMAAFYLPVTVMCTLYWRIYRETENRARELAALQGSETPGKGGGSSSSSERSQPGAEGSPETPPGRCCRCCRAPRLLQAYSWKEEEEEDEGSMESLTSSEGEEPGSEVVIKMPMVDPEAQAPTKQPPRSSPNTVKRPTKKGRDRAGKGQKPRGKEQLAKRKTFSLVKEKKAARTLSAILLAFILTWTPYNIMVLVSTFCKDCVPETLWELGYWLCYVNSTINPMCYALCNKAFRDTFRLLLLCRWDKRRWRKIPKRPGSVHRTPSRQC
Protocol: as §3

[11] = molecular target: T10, ALK4(h) (Homo sapiens, UniProt P36896); assay: Kinase panel; format: biochemical
T10 construct: purchased Cerep (receptors, ion channels, transporters); Eurofins Panlabs (kinases)
T10 sequence (P36896 24-505): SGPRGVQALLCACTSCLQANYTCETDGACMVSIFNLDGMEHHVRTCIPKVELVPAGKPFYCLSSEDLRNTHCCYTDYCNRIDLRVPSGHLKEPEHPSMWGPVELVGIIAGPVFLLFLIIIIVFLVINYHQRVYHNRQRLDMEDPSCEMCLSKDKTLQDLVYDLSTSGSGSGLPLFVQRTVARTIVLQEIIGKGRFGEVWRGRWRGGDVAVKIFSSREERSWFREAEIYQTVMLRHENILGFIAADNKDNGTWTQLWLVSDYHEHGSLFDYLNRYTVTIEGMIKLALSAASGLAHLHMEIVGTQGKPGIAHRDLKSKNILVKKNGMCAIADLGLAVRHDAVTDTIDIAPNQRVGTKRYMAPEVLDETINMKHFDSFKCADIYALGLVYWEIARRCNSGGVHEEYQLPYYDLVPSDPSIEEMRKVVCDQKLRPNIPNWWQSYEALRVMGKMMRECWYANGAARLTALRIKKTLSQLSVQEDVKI
Protocol: 28 GPCRs were evaluated through cAMP or calcium FLIPR assays[67]. A panel of 52 different receptors, ion channels and transporters was tested by Cerep, Inc. (Redmond, WA). Kinase selectivity was conducted by Eurofins Panlabs Inc (St Charles, MO).

[12] = molecular target: T11, CK2α2(h) (Homo sapiens, UniProt P19784); assay: Kinase panel; format: biochemical
T11 construct: purchased Cerep (receptors, ion channels, transporters); Eurofins Panlabs (kinases)
T11 sequence (P19784 whole entry): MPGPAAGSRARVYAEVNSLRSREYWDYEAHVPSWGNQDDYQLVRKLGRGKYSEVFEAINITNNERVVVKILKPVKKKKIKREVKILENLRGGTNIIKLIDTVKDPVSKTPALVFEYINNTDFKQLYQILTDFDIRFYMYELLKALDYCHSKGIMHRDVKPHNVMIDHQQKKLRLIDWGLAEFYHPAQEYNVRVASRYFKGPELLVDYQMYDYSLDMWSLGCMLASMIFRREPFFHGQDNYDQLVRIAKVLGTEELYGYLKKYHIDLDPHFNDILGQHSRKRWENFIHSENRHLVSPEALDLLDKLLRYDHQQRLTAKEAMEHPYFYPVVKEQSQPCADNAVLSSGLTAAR
Protocol: (§4) Kinase selectivity was conducted by Eurofins Panlabs Inc (St Charles, MO).

[13] = molecular target: T12, EGFR(h) (Homo sapiens, UniProt P00533); assay: Kinase panel; format: biochemical
T12 construct: purchased Cerep (receptors, ion channels, transporters); Eurofins Panlabs (kinases)
T12 sequence (P00533 25-1210): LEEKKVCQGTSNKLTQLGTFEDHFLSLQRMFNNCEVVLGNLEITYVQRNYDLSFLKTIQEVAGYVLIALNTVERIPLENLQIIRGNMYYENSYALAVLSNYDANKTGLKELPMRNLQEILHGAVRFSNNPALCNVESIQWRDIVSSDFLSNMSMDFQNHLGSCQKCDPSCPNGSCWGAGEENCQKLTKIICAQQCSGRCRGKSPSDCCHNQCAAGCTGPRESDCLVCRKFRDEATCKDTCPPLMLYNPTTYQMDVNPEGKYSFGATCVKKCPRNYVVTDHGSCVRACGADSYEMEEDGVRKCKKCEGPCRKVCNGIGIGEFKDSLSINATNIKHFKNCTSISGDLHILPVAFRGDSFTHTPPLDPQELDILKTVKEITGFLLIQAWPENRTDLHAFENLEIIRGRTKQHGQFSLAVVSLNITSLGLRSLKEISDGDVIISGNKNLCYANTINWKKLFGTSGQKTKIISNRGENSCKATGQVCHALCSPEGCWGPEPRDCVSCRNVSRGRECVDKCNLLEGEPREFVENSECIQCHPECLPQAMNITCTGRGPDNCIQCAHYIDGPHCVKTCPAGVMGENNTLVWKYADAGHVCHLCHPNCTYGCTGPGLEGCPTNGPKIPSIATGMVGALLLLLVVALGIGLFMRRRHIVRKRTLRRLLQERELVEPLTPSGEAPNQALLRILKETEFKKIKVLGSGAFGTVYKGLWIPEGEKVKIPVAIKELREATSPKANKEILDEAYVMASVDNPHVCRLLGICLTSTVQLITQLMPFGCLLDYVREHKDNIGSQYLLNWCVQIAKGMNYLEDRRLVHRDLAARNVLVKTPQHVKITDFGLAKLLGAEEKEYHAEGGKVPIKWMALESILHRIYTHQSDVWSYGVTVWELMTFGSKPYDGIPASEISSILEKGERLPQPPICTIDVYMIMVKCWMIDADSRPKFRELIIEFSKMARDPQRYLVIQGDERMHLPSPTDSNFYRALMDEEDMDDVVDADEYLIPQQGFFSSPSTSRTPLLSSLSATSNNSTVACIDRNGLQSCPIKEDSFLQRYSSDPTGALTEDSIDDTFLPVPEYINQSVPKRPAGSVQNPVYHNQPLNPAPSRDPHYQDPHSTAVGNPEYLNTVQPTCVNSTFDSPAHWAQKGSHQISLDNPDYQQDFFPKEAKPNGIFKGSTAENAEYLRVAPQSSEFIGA
Protocol: as §4

[14] = molecular target: T13, Flt3(h) (Homo sapiens, UniProt P36888); assay: Kinase panel; format: biochemical
T13 construct: purchased Cerep (receptors, ion channels, transporters); Eurofins Panlabs (kinases)
T13 sequence (P36888 27-993): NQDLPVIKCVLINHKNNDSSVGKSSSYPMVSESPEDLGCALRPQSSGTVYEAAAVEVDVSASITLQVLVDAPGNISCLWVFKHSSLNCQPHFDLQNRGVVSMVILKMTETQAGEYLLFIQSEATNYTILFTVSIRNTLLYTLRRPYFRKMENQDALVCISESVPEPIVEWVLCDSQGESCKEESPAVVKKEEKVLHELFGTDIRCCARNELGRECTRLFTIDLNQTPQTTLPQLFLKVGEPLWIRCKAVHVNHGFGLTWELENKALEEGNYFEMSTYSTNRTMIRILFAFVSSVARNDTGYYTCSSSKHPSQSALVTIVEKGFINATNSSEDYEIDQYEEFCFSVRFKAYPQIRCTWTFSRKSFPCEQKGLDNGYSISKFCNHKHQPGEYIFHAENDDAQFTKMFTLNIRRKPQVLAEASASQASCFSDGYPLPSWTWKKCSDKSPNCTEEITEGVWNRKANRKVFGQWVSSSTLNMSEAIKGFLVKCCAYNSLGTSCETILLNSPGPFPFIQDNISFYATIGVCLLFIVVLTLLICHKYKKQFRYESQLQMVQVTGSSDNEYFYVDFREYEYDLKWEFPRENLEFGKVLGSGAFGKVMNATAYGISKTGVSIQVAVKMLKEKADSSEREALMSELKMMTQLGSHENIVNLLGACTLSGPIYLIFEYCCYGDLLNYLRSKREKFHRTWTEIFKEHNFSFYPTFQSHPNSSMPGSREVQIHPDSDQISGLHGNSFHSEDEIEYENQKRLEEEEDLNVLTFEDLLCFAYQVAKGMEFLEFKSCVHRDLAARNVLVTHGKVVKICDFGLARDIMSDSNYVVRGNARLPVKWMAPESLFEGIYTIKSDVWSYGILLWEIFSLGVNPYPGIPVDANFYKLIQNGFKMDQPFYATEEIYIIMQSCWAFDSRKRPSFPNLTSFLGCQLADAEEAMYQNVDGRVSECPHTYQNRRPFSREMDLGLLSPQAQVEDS
Protocol: as §4

[15] = molecular target: hNav1.5 (Homo sapiens, UniProt Q14524); assay: follow-up functional study; format: cell-based; settings: read-out: IC50 in follow-up functional studies
[16] = molecular target: NK2 (Homo sapiens, UniProt P21452); assay: follow-up functional study; format: cell-based
NK2, sequence (P21452 whole entry): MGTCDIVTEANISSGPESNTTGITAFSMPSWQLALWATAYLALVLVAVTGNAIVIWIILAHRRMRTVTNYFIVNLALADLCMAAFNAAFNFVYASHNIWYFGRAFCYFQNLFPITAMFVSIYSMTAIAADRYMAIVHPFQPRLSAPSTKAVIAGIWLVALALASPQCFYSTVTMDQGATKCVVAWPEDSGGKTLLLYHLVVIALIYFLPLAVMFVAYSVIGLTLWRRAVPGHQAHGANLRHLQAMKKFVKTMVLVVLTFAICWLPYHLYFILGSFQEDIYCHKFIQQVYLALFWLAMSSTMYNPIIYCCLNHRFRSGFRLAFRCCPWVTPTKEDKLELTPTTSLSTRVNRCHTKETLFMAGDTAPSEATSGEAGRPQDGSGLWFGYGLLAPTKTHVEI

[17] = 1-month GLP toxicity study in dogs; format: in vivo; settings: Beagle, in vivo, dog; for AUC(0-t) / Cmax: po, 3 mg/kg; for AUC(0-t): read-out: AUC0-24 h at NOAEL; for Cmax: read-out: Cmax at NOAEL
Protocol: (§1) The type of study plan was reviewed and agreed by the Laboratory Animal Welfare Officer and the Animal Ethical Committee (officially known as Dierexperimentencommissie (DEC) Charles River Den Bosch), as required by the Dutch Act on Animal Experimentation (February 1997). Both rat and dog studies were performed in AALAC accredited Charles River Laboratories in the Netherlands. Studies in rats were conducted with 0, 25, 100, and 400 mg/kg per day (n = 10/sex/group) for 1 month. An additional 5 animals/sex in vehicle and high dose were allowed to continue for a 1-month treatment-free recovery period. Studies in dogs were conducted with 0, 3, 10, and 30 mg/kg per day (n = 4/sex/group) for 1 month. A treatment-free recovery period of 1 month (additional 2 dogs/sex/group) was included for both vehicle controls and high dose groups. […] Rats and dogs were examined for mortality, clinical signs, ophthalmoscopic changes, body weight, food consumption, hematology, clinical chemistry, anatomic pathology, and toxicokinetics. In addition, dogs were examined for electrocardiographic changes. Rats and dogs were also assessed for reversal of any effects following a 1-month recovery period. These studies were conducted in compliance with good laboratory practice (GLP) regulations.

[18] = test system: Beagle dogs; assay: 1-month GLP toxicity study in dogs; format: in vivo; settings: dog
Protocol: as §1

For CC1CCCN1C(=O)c1nc(C(=O)NCC(C)(C)O)sc1-c1ccc(C(O)(C(F)(F)F)C(F)(F)F)c(Cl)c1Cl (stereo not drawn) [JNJ-61803534], the pIC50 [1] was less than 5.82, the pIC50 [2] was less than 5.82 and the pIC50 [3] was less than 5.82. For the same compound, the inhibition at 1 µM [4] was less than 10%, the inhibition at 10 µM [4] was less than 10% and the inhibition at 1 µM [5] was less than 10%. For the same compound, the inhibition at 10 µM [5] was less than 10%, the inhibition at 1 µM [6] was less than 10% and the inhibition at 10 µM [6] was less than 10%. For the same compound, the inhibition at 1 µM [7] was less than 10%, the inhibition at 10 µM [7] was less than 10% and the inhibition at 1 µM [8] was less than 10%. It also gave an inhibition at 10 µM [8] of less than 10%, an EC50 ([9]; agonist) greater than 12.5 µM and an IC50 ([9]; antagonist) greater than 12.5 µM. It also gave an EC50 ([10]; agonist) greater than 10 µM, an IC50 ([10]; antagonist) greater than 10 µM and an activity at 1 µM [11] of 104%. The activity at 10 µM [11] was 108%, the activity at 1 µM [12] was 92% and the activity at 10 µM [12] was 100%. For the same compound, the activity at 1 µM [13] was 100%, the activity at 10 µM [13] was 101% and the activity at 1 µM [14] was 84%. It also gave an activity at 10 µM [14] of 103%, a pIC50 [15] of less than 4.52 and a pIC50 ([16]; read-out: IC50 in follow up functional assays) of less than 4.52. The “effect on NK2 in follow-up functional studies” value ([16]; up to 30 µM) was “no effect”, the AUC(0-t) ([17]; female) was 142 µg·h/mL and the Cmax ([17]; female) was 7500 ng/mL. For the same compound, the AUC(0-t) ([17]; male) was 118 µg·h/mL, the Cmax ([17]; male) was 7250 ng/mL and the NOAEL at 1 month ([17]; both sexes, 1 month oral) was 3 mg/kg. For the same compound, the tolerability ([18]; 10 mg/kg/day, weight loss and reduced food consumption in the fourth week, trend for increased ALP) was “clinically well tolerated during the first 3 weeks of treatment”, the tolerability ([18]; 30 mg/kg/day, intestinal mucosal hemorrhages and slight hepatocellular lipid vacuolation in some animals) was “exceeded the maximum tolerated dose” and the “lymphocyte apoptosis in thymus” value ([18]; recovered after 1-month recovery period) was “dose-dependent lymphocyte apoptosis in thymus was observed”.
